Values of other authors in patent US20090099301A1, “MOLECULAR IMPRINTINGS FOR RECOGNITION IN AQUEOUS MEDIA, METHODS FOR PREPARING SAME AND USES THEREOF” (POLYINTELL, priority 2006, published 2009).

Conditions: basic medium (pH 11)

In the case of `CC(C)NCC(O)COc1cccc2ccccc12` (stereo not shown) [propranolol], the solubility in water is listed as “insoluble”.
